Reference: PMC10702058, “Phase I dose escalation study and pilot efficacy analysis of LXI-15029, a novel mTOR dual inhibitor, in Chinese subjects with advanced malignant solid tumors” (BMC Cancer, 2023)
Entries after “also recorded” stand apart in the source; their conditions may differ.

What was measured:
[1] = Plasma pharmacokinetics of LXI-15029 (LC-MS/MS, non-compartmental analysis); format: in vivo, human; conditions: for Cmax / AUC(0-inf): human, plasma, geometric mean (coefficient of variation); for Cmax / AUC(0-inf) / CL/F / V/F: single dose, cycle 1 day 1; for RacAUC (accumulation ratio) / RacCmax (accumulation ratio) / t1/2ss: multiple dose, cycle 1 day 28; for RacAUC (accumulation ratio) / RacCmax (accumulation ratio) / t1/2ss / CL/F / V/F: arithmetic mean ± standard deviation
Procedure: Blood samples for PK analysis of LXI-15029 were collected on day 1 (pre-dose, 20 min, 40 min, 1 h, 1.5 h, 2 h, 3 h, 4 h, 6 h, 8 h, 12 h, 24 h, and 48 h), cycle 1 day 8 (pre-dose), cycle 1 day 15 (pre-dose), and cycle 1 day 28 (pre-dose, 20 min, 40 min, 1 h, 1.5 h, 2 h, 3 h, 4 h, 6 h, 8 h, and 12 h). The blood samples were stored at -70°C until testing. The concentration of LXI-15029 in plasma was measured using the validated liquid chromatography-tandem mass spectrometry (LC–MS/MS) method. The concentration–time information of LXI-15029 was summarized based on pre-dose and post-dose data of each patient, to explore the linearity of exposure with single dose and steady-state situations, the time to reach steady state and the predictability of single to multiple doses PK. PK parameters were calculated separately for single and repeated doses using descriptive statistics. PK analysis was performed by Covance Central Laboratory using the validated software Phoenix WinNonlin Version 8.1 (Pharsight, Mountain View, CA). A standard non-compartmental method was used to calculate the peak plasma concentration (Cmax), time to reach the Cmax (tmax), the total area under the concentration–time curve (AUC0-∞), and the elimination half-life (t1/2).

[2] = test system: human renal carcinoma, gastric cancer, breast cancer, and lung cancer xenografts; conditions: cited from earlier work
[3] = test system: advanced malignant solid tumors; test: Investigator-assessed antitumor effect (RECIST 1.1: ORR, DCR, PFS)
Procedure: All safety, tolerance, PK, and antitumor data from each dose group were tabulated and summarized according to the statistical analysis plan. The statistical analysis of the study was descriptive. The continuous variables were described as mean ± standard deviation or median (minimum, maximum). […] The categorical variables were described as n (%). PFS was summarized using the Kaplan–Meier method. […] All data processing, summaries, and analyses were performed using SAS 9.4 (SAS Institute, Cary, NC, USA).

## CNC(=O)c1cccc(-c2ccc3c(N4C5CCC4COC5)nc(N4CCOC[C@@H]4C)nc3n2)c1 [LXI-15029]
[1]; oral, 10 mg BID (n = 3)
  Cmax: 66.5 ng/mL
[1]; oral, 20 mg BID (n = 3)
  AUC(0-inf): 898 ng·h/mL
  Cmax: 474 ng/mL
[1]; oral, 40 mg BID (n = 3)
  AUC(0-inf): 1680 ng·h/mL
  Cmax: 1010 ng/mL
[1]; oral, 60 mg BID (n = 4)
  AUC(0-inf): 3750 ng·h/mL
  Cmax: 1340 ng/mL
[1]; oral, 80 mg BID (n = 4)
  AUC(0-inf): 1870 ng·h/mL
  Cmax: 1340 ng/mL
[1]; oral, 110 mg BID (n = 3)
  AUC(0-inf): 5340 ng·h/mL
  Cmax: 2930 ng/mL
[1]; oral, 150 mg BID (n = 4)
  AUC(0-inf): 12100 ng·h/mL
  Cmax: 4140 ng/mL
[1]; 10 mg BID (n = 3)
  RacAUC (accumulation ratio): 2.08 ± 1.289
  RacCmax (accumulation ratio): 1.96 ± 1.061
  t1/2ss: 1.13 ± 0.080 h
  CL/F: 99.45 ± 51.035 L/h
  V/F: 126.07 ± 40.383 L
[1]; 20 mg BID (n = 3)
  RacAUC (accumulation ratio): 0.99 ± 0.260
  RacCmax (accumulation ratio): 0.75 ± 0.140
  t1/2ss: 1.24 ± 0.167 h
  CL/F: 24.11 ± 11.940 L/h
  V/F: 49.56 ± 19.453 L
[1]; 40 mg BID (n = 3)
  RacAUC (accumulation ratio): 1.00 ± 0.036
  RacCmax (accumulation ratio): 1.02 ± 0.180
  t1/2ss: 1.14 ± 0.250 h
  CL/F: 24.58 ± 7.772 L/h
  V/F: 42.35 ± 25.602 L
[1]; 60 mg BID (n = 4)
  RacAUC (accumulation ratio): 1.47 ± 0.546
  RacCmax (accumulation ratio): 1.37 ± 0.382
  t1/2ss: 1.90 ± 0.197 h
  CL/F: 16.47 ± 4.677 L/h
  V/F: 45.88 ± 14.063 L
[1]; 80 mg BID (n = 4)
  RacAUC (accumulation ratio): 1.78 ± 0.268
  RacCmax (accumulation ratio): 1.28 ± 0.102
  t1/2ss: 1.33 ± 0.068 h
  CL/F: 48.30 ± 25.396 L/h
  V/F: 92.88 ± 47.995 L
[1]; 110 mg BID (n = 3)
  RacAUC (accumulation ratio): 2.51 ± 0.778
  RacCmax (accumulation ratio): 1.37 ± 0.352
  t1/2ss: 2.33 ± 0.857 h
  CL/F: 24.35 ± 17.791 L/h
  V/F: 43.99 ± 17.319 L
[1]; 150 mg BID (n = 4)
  RacAUC (accumulation ratio): 2.39 ± 0.768
  RacCmax (accumulation ratio): 1.36 ± 0.507
  t1/2ss: 3.26 ± 1.247 h
  CL/F: 12.57 ± 2.022 L/h
  V/F: 34.75 ± 12.576 L
[1]; oral
  absorption after oral administration: absorbed rapidly; also recorded: fast absorbed
[2]; dose range of 5–40 mg/kg, in vivo preclinical data
  dose dependence of antitumor activity: dose-dependent
[2]; tumors with abnormal regulation in the mTOR signaling pathway, ref [25], [26]
  antitumor activity in xenograft models: selective antitumor effect; also recorded: selective antitumor activity
[3]; 8/20 evaluable, 95% CI 21.7–60.6
  disease control rate (DCR): 40%
[3]; 20 evaluable participants
  complete or partial response (CR or PR): No participants achieved CR or PR
[3]; evaluable patients, overall, from first dose
  median progression-free survival: 29 days
[3]; exposure-efficacy analysis
  relationship between Ctrough and median PFS or DCR: no relationship was found
[3]; in vivo
  DCR-dose correlation: No DCR-dose correlation was observed
[3]; of 20 evaluable
  patients with stable disease: Eight
[3]; one participant with fibrosarcoma, 20 mg BID
  duration of SD: 344 days
[3]; patients with breast cancer, 95% CI: 0.89–4.63
  median PFS: 0.95 months
[3]; patients with sarcoma, 95% CI: 0.92–11.33
  median PFS: 0.97 months
